# How the values were obtained:
# MSSA = assay: Test A antibacterial assay, broth microdilution MIC; format: cell-based; details: Staphylococcus aureus, growth read after 24 to 48 hours at OD 600 nm
# Protocol: Test A. Antibacterial Assay. Antibacterial activity can be determined as per Clinical and Laboratory Standards Institute (CLSI) guidelines using a broth microdilution assay in which log-phase bacteria are grown at 37° C. in appropriate medium containing two-fold serial dilutions of a compound to yield final concentrations ranging from 256 to 0.06 μg/mL. For determination of minimal inhibitory concentration (MIC) values, bacterial growth is monitored after 24 to 48 hours by measuring optical density at 600 nm.
# [1] = Test D formulation of test compounds (solubility in vehicles); format: physicochemical; details: for concentration readily formulated: 10 mM solutions of citrate, methane sulfonate, p-toluene sulphonate, phosphoric acid, and tartaric acid
# Protocol: Test D. Formulation of Test Compounds.
# The literature vehicle reported for formulation of 5-chloro-2-(2,4-difluoro-3-aminocarbonylphenoxy)methylpyridylthiazole for i.v. administration consists of 20% DMA, 40% polyethylene glycol and 40% saline. […] Mice that were treated 15 minutes later with a second injection consisting of 150 μl of this vehicle died. In addition, concentrations of 5-chloro-2-(2,4-difluoro-3-aminocarbonylphenoxy)methylpyridylthiazole at or above 2.2 mg/ml in this vehicle were not completely dissolved and existed as a suspension (in a 28 g mouse this would be 15.7 mg/kg). A number of other formulations with 5-chloro-2-(2,4-difluoro-3-aminocarbonylphenoxy)methyl […] were tried, such as 20% DMA, 40% proplyeneglycol in 8% Cremophor-EL. […] Because of the limited solubility and the absence of a suitable vehicle, the literature study where it was reported that a 30 mg/kg dose of 5-chloro-2-(2,4-difluoro-3-aminocarbonylphenoxy)methylpyridylthiazole was delivered to mice in a single injection could not be repeated. […] In some instances the addition of 10-30% propylene glycocol did allow for greater retention of solubility of the test compounds. Example 4 was also found to formulate well at a 2.0 mg/ml concentration in 10 mM malic acid with 20% propylene glycol and with 10 mM p-toluenesulphonate alone. Example 6 did formulate well in 10 mM citrate alone at a concentration of 2.0 mg/ml. […] The ability of mice to tolerate this vehicle did allow for multiple dosing in the assessment of Example 6 in vivo and to actually deliver higher doses of the Example 6 because of the compatibility of a predominately aqueous vehicle.
# [2] = test system: Bacillus subtilis FG347 bacteria; assay: Test C FtsZ Z-ring assay (GFP-ZapA fluorescence microscopy); format: cell-based; details: compound at 3 μg/mL
# Protocol: Test C. FtsZ Z-Ring Assay.
# The impact of a compound on FtsZ Z-ring formation can be determined using a strain of Bacillus subtilis (FG347) that expresses a green fluorescent protein (GFP)-ZapA fusion protein upon induction with xylose. ZapA is known to associate with FtsZ Z-rings in B. subtilis and, thus, serves as a marker for Z-ring formation. In this assay, log-phase FG347 bacteria are treated with differing concentrations of compound for time periods ranging from 1 to 6 hours. At each time point, aliquots are taken from each culture and then viewed with a fluorescence microscope.
# Examples 4 and 6-8 were evaluated for their impact on the polymerization of Staphylococcus aureus FtsZ. […] In addition, Example 5 and 7 were also examined for their impact on FtsZ Z-ring formation in Bacillus subtilis FG347 bacteria. […] These collective results highlight the compounds of the invention as FtsZ-targeting antibacterial agents.
# MSSA (S. aureus) = assay: Test E in vivo efficacy, murine septicemia model of staphylococcal infection; details: for mice surviving the infection / mice: i.v. treatment
# Protocol: Test E. In Vivo Efficacy in the Mouse Peritonitis or Mouse Septicemia Model.
# Assessment of in vivo efficacy was performed using femal Swiss Webster mice (obtained from Taconic Farms, Germantown, Pa.) employing a murine septicemia model of staphylococcal infection. For bioassays examining efficacy against MSSA, each mouse was inoculated intraperitoneally with 500 μl of an inoculum containing 1.0×10^8 CFU per ml of S. aureus. All of the in vivo efficacy studies include a negative control group of infected mice treated intravenously either with vehicle alone (6 mice) or untreated (6 mice), as well as a positive control groups of infected mice treated with 200 ul of […] of vancomycin administered intravenously (4 mice) and a second control group using 2.0 mg/ml of oxacillin (4 mice). After the mice were infected, groups of six mice are treated by tail vein injection with 300 ul of a solution containing 2.0 mg of Example 6 in 10 mM citrate. Mice received four doses Example 6 administered with a 15 minute interval. Control mice are treated with vancomycin qd, oxacillin b.i.d, or vehicle alone. […] Animals are given food and water ad libitum. Survival within each experimental group is monitored over a 24 hout time period. Monitoring of the mice began 4 hours after the start of experiment. All of the effective mice treated with Example 6 survived the infection (5/5, 100% survival). All of the oxacillin-treated (4/4) and vancomycin-treated mice (4/4) survived the infection. All of the vehicle controls died within 12 hours, with 0/6 or 0% survival. Among the infected mice that receive no treatment, only 1/6 survived (16.7% survival).
# [3] = MSSA-infected mice, 24 h monitoring
MIC (MSSA) [µg/mL],Compound,other results
> 64,Cc1nc(COc2ccc(F)c(C(=O)NCN(C)C)c2F)sc1-c1ccncc1 [Example 1],
> 64,O=C(NCn1ccnc1)c1c(F)ccc(OCc2nc3cc(Cl)ccc3s2)c1F [Example 2],
< 0.125,CN(C)/C=N/C(=O)c1c(F)ccc(OCc2nc3cc(Cl)ccc3s2)c1F [Example 3],
0.125,CN(C)CNC(=O)c1c(F)ccc(OCc2nc3cc(Cl)ccc3s2)c1F [Example 4],concentration formulated well ([1]; 10 mM malic acid with 20% propylene glycol): 2000 µg/mL; concentration formulated well ([1]; 10 mM p-toluenesulphonate alone): 2000 µg/mL; concentration readily formulated [1]: 2000 µg/mL
2,CN1CCN(CNC(=O)c2c(F)ccc(OCc3nc4cc(Cl)cnc4s3)c2F)CC1 [Example 8],
0.125,CCN(CC)CNC(=O)c1c(F)ccc(OCc2nc3cc(Cl)ccc3s2)c1F [Example 9],
0.25,COc1ccc(CN(C)CNC(=O)c2c(F)ccc(OCc3nc4cc(Cl)ccc4s3)c2F)cc1 [Example 10],
1,COc1ccc(CN(C)CNC(=O)c2c(F)ccc(OCc3nc4cc(Cl)cnc4s3)c2F)cc1 [Example 11],
0.5,CN(CNC(=O)c1c(F)ccc(OCc2nc3cc(Cl)ccc3s2)c1F)Cc1ccc(C(F)(F)F)cc1 [Example 12],
1,CN(CNC(=O)c1c(F)ccc(OCc2nc3cc(Cl)cnc3s2)c1F)Cc1ccc(C(F)(F)F)cc1 [Example 13],
0.25,Cc1ccc(CN(C)CNC(=O)c2c(F)ccc(OCc3nc4cc(Cl)ccc4s3)c2F)cc1 [Example 14],
0.5,Cc1ccc(CN(C)CNC(=O)c2c(F)ccc(OCc3nc4cc(Cl)cnc4s3)c2F)cc1 [Example 15],
0.5,CCN(CC)CNC(=O)c1c(F)ccc(OCc2nc3cc(Cl)cnc3s2)c1F [Example 16],
0.5,CC1CCN(CNC(=O)c2c(F)ccc(OCc3nc4cc(Cl)cnc4s3)c2F)CC1 [Example 17],
0.25,CC1CCN(CNC(=O)c2c(F)ccc(OCc3nc4cc(Cl)ccc4s3)c2F)CC1 [Example 18],
1,CCN(CC)CNC(=O)c1c(F)ccc(OC(C)c2nc(C)c(-c3ccc(C(C)(C)C)cc3)s2)c1F (stereo not shown) [Example 19],
1,Cc1ccc(CN(C)CNC(=O)c2c(F)ccc(OC(C)c3nc(C)c(-c4ccc(C(C)(C)C)cc4)s3)c2F)cc1 (stereo not shown) [Example 20],
0.5,Cc1nc(COc2ccc(F)c(C(=O)NCN3CCC(C)CC3)c2F)sc1-c1ccc(C(C)(C)C)cc1 [Example 21],
0.125,CCN(CC)CNC(=O)c1c(F)ccc(OCc2nc(-c3ccc(C(F)(F)F)cc3)c(Br)o2)c1F [Example 22],
0.25,Cc1ccc(CN(C)CNC(=O)c2c(F)ccc(OCc3nc(-c4ccc(C(F)(F)F)cc4)c(Br)o3)c2F)cc1 [Example 23],
8,CCN(CC)CNC(=O)c1c(F)ccc(OCc2nc3cc(Cl)ccc3o2)c1F [Example 24],
16,Cc1ccc(CN(C)CNC(=O)c2c(F)ccc(OCc3nc4cc(Cl)ccc4o3)c2F)cc1 [Example 25],

MIC (MSSA) [µg/mL],Compound,other results
16,COc1ccc(CN(C)CNC(=O)c2c(F)ccc(OCc3nc4cc(Cl)ccc4o3)c2F)cc1 [Example 26],
0.125,CNCNC(=O)c1c(F)ccc(OCc2nc3cc(Cl)ccc3s2)c1F [Example 27],
0.25,O=C(NC(c1ccccc1)N1CCOCC1)c1c(F)ccc(OCc2nc3cc(Cl)ccc3s2)c1F (stereo not shown) [Example 28],
1,O=C(NC(c1ccccc1)N1CCOCC1)c1c(F)ccc(OCc2nc3cc(Cl)cnc3s2)c1F (stereo not shown) [Example 29],
0.5,O=C(NC(c1cccc(Br)c1)N1CCOCC1)c1c(F)ccc(OCc2nc3cc(Cl)ccc3s2)c1F (stereo not shown) [Example 30],
0.5,CN1CCN(C(NC(=O)c2c(F)ccc(OCc3nc4cc(Cl)ccc4s3)c2F)c2cccc(Br)c2)CC1 (stereo not shown) [Example 31],
0.5,CN1CCN(C(NC(=O)c2c(F)ccc(OCc3nc4cc(Cl)cnc4s3)c2F)c2ccccc2)CC1 (stereo not shown) [Example 32],
0.125,Cc1nc(COc2ccc(F)c(C(=O)NCN(C)C)c2F)sc1-c1ccc(C(C)(C)C)cc1 [Example 34],
> 64,Cc1nc(COc2ccc(F)c(C(=O)NCN(C)Cc3ccc(C(F)(F)F)cc3)c2F)sc1-c1ccc(C(C)(C)C)cc1 [Example 35],
0.5,CN1CCN(C(NC(=O)c2c(F)ccc(OCc3nc4cc(Cl)ccc4s3)c2F)c2ccncc2)CC1 (stereo not shown) [Example 37],
8,CN1CCN(C(NC(=O)c2c(F)ccc(OCc3nc4cc(Cl)ccc4s3)c2F)c2ccccc2)CC1 (stereo not shown) [Example 38],
0.25,C#CCN(C)CNC(=O)c1c(F)ccc(OCc2nc3cc(Cl)ccc3s2)c1F [Example 39],
0.5,CC(C)(C)NCNC(=O)c1c(F)ccc(OCc2nc3cc(Cl)ccc3s2)c1F [Example 40],
0.5,O=C(NCNCc1ccccc1)c1c(F)ccc(OCc2nc3cc(Cl)ccc3s2)c1F [Example 41],
2,CCN(CC)CNC(=O)c1c(Cl)ccc(OCc2nc3cc(Cl)ccc3s2)c1F [Example 42],
2,Cc1nc(COc2ccc(F)c(C(=O)NCN3CCC(C)CC3)c2F)sc1-c1ccc(C(F)(F)F)cc1 [Example 43],
2,C/C(=N\C(=O)c1c(F)ccc(OCc2nc3cc(Cl)ccc3s2)c1F)N(C)C [Example 44],
32,CN(C)/C=N/C(=O)c1c(F)ccc(O/C(=C/N(C)C)c2nc3cc(Cl)ccc3s2)c1F [Example 45],
8,Cc1csc(COc2ccc(F)c(C(=O)NCN(C)C)c2F)n1 [Example 46],
,"Cc1onc(-c2ccccc2)c1C(=O)N[C@@H]1C(=O)N2[C@@H]1SC(C)(C)[C@@H]2C(=O)O [oxacillin, reference compound]",mice surviving the infection / mice (MSSA (S. aureus); [3]): 4/4
,"CN[C@H](CC(C)C)C(=O)N[C@H]1C(=O)N[C@@H](CC(N)=O)C(=O)N[C@H]2C(=O)N[C@H]3C(=O)N[C@H](C(=O)N[C@H](C(=O)O)c4cc(O)cc(O)c4-c4cc3ccc4O)[C@H](O)c3ccc(c(Cl)c3)Oc3cc2cc(c3O[C@@H]2O[C@H](CO)[C@@H](O)[C@H](O)[C@H]2O[C@H]2C[C@](C)(N)[C@H](O)[C@H](C)O2)Oc2ccc(cc2Cl)[C@H]1O [vancomycin, reference compound]",mice surviving the infection / mice (MSSA (S. aureus); [3]): 4/4

Compound,MIC (MSSA) [µg/mL],other results
CN(C)/C=N/C(=O)c1c(F)ccc(OCc2nc3cc(Cl)cnc3s2)c1F [Example 5],0.25,"bacterial morphology induced [2]: elongated, filamentous morphology; impact on FtsZ Z-ring formation [2]: inhibit FtsZ Z-ring formation"
CN(C)CNC(=O)c1c(F)ccc(OCc2nc3cc(Cl)cnc3s2)c1F [Example 6],0.25,"concentration formulated well ([1]; 10 mM citrate alone): 2000 µg/mL; concentration readily formulated [1]: 2000 µg/mL; survival (MSSA (S. aureus); MSSA-infected mice, i.v. tail vein, four doses at 15 minute interval in 10 mM citrate, 24 h monitoring): 100%; mice surviving the infection / mice (MSSA (S. aureus); [3]): 5/5; death during the course of treatment (MSSA (S. aureus); group of six mice, 300 ul i.v. of 2.0 mg solution in 10 mM citrate, four doses): One of the mice treated with Example 6 died during the course of treatment"
